We go through 9 molecules from ChEMBL document CHEMBL1201862, “PubChem BioAssay data set” (2004).

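Results reflect a 48-hour exposure of cells in 96-well plates to compound at five concentrations. The concentration for 50% growth inhibition is given as GI50.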 The source made the active and inactive calls. Cut-off read from the data, not from the text of the source: active = GI50 up to about 1.1 µM and inactive = higher. Bounds are passed on as bounds.

Some test systems named below: HCT-116; SN12C; RXF 393; ACHN; LOX IMVI; TK-10; SW-620; NCI-H522; K562; UACC-257; HOP-62; HL-60; EKVX; NCI-H23; NCI-H460; OVCAR-4; HCT-15.
Common to all, as to test: growth of human tumour cells (NCI), 48 h

Take `COc1cc(C(=C2SCCS2)c2nccc3cc(OC)c(OC)cc23)c([N+](=O)[O-])cc1OC`: the GI50 in the experiment on HCT-116 was 80.4 µM (inactive); in the experiment with SN12C, 48.9 µM (inactive); in the experiment on RXF 393 it was > 100 µM (inactive); in the experiment with ACHN it was 29.9 µM (inactive); with LOX IMVI, 80.9 µM (inactive); with TK-10, > 100 µM (inactive). Further, the GI50 in the experiment with SW-620 was 62.1 µM (inactive); in the experiment with NCI-H522, 36.6 µM (inactive); in the experiment on K562 it was 9.42 µM (inactive); in the experiment on UACC-257 it was 34 µM (inactive); in the experiment with HOP-62 it was > 100 µM (inactive); with HL-60, 10.5 µM (inactive). Further, the figures for the GI50 in the experiment with EKVX and in the experiment with NCI-H23 were 54 µM (inactive) and 40.8 µM (inactive), respectively.
Regarding `S=c1nc(N2CCCCC2)ss1`, the GI50 is 17.7 µM (inactive) in the experiment on HCT-116; 17 µM (inactive) with SN12C; 16.7 µM (inactive) in the experiment with RXF 393; 27 µM (inactive) in the experiment on ACHN; 22.3 µM (inactive) with NCI-H460; 40.6 µM (inactive) in the experiment with TK-10. Moreover, the GI50 with SW-620 was 24.8 µM (inactive); in the experiment with K562, 18.4 µM (inactive); in the experiment with OVCAR-4 it was 38.2 µM (inactive); in the experiment on UACC-257, 19.8 µM (inactive); in the experiment on HOP-62, 26.7 µM (inactive); in the experiment on HL-60, 13.5 µM (inactive). Further, the results for the GI50 with HCT-15, with EKVX and with NCI-H23 were 21.1 µM, 24.2 µM (inactive) and 47.5 µM (inactive), respectively.
Consider `N#CC(C#N)=Cc1ccc(Oc2ccccc2)cc1`, for which the GI50 was 20.6 µM (inactive) with HCT-116; 14.1 µM (inactive) with SN12C; 30.5 µM (inactive) with RXF 393; 21.3 µM (inactive) in the experiment with ACHN; 53.2 µM (inactive) in the experiment on NCI-H460; 15.8 µM (inactive) in the experiment on LOX IMVI. The GI50 is 55.5 µM (inactive) in the experiment on TK-10; 32.4 µM (inactive) with SW-620; 23.7 µM (inactive) in the experiment on NCI-H522; 26.7 µM (inactive) with K562; 25.6 µM (inactive) in the experiment with UACC-257; 65.8 µM (inactive) with HOP-62. The GI50 is 23 µM (inactive) in the experiment with HL-60, 70.5 µM with HCT-15, > 100 µM (inactive) with EKVX and 23.6 µM (inactive) in the experiment on NCI-H23.
With `Cc1c2cc[n+](C)cc2c(C)c2c1[nH]c1ccc(OC(C)(C)C)cc12`, the GI50 in the experiment with HCT-116, in the experiment with SN12C, with RXF 393, with ACHN, with NCI-H460 and with LOX IMVI was > 100 µM (inactive) each time. The GI50 with TK-10, in the experiment on SW-620, in the experiment on NCI-H522, in the experiment with K562, in the experiment with OVCAR-4 and in the experiment with UACC-257 was > 100 µM (inactive) in each case. Also, the GI50 in the experiment on HOP-62 was > 100 µM (inactive); in the experiment on HL-60, > 100 µM (inactive); in the experiment on HCT-15 it was more than 100 µM; with NCI-H23 it was > 100 µM (inactive).
As for `COS(=O)CCOC(=O)c1ccccc1SSc1ccccc1C(=O)OCCS(=O)OC` (stereo not drawn), the GI50 with SN12C is 26.1 µM (inactive); with RXF 393 it was 14.2 µM (inactive); in the experiment on ACHN, 43.7 µM (inactive); in the experiment with NCI-H460 it was > 100 µM (inactive); with LOX IMVI, 22.2 µM (inactive); with TK-10, 81.8 µM (inactive). Further, the GI50 in the experiment with SW-620 is 31 µM (inactive); in the experiment on NCI-H522, 4.78 µM (inactive); with K562, 20.6 µM (inactive); in the experiment with OVCAR-4, 16.4 µM (inactive); in the experiment with UACC-257 it was 15.6 µM (inactive); in the experiment with HOP-62, > 100 µM (inactive). The GI50 in the experiment with HCT-15 is 23.8 µM; in the experiment with EKVX it was > 100 µM (inactive); in the experiment with NCI-H23, 20.2 µM (inactive).
Regarding `CN(C)CC1(C)CC/C(=C\c2ccccc2)C1=O` (stereo not drawn), the GI50 in the experiment with HCT-116, in the experiment on SN12C, in the experiment with RXF 393, in the experiment on ACHN, with NCI-H460 and with LOX IMVI was > 100 µM (inactive) each time. The GI50 in the experiment with TK-10 is > 100 µM (inactive); in the experiment on SW-620 it was 63.1 µM (inactive); in the experiment on NCI-H522 it was 39.8 µM (inactive); in the experiment with K562, > 100 µM (inactive); with OVCAR-4, > 100 µM (inactive); in the experiment with UACC-257, > 100 µM (inactive). The GI50 was > 100 µM (inactive) in the experiment on HOP-62, 63 µM in the experiment with HCT-15 and > 100 µM (inactive) in the experiment on NCI-H23.
In the case of `CC(=O)NC1C(OCc2ccccc2)OC(COC(=O)CCCCCCCCCCNc2ccc([N+](=O)[O-])c3[nH]c4ccccc4c(=O)c23)C(O)C1OC(C)C(=O)NC(C)C(=O)NC(CCC(N)=O)C(=O)OCc1ccccc1` (stereo not drawn), the GI50 with HCT-116, with SN12C, in the experiment with ACHN, with NCI-H460, in the experiment on LOX IMVI and in the experiment with TK-10 was > 100 µM (inactive) throughout. The GI50 in the experiment with SW-620, with NCI-H522, with K562, with OVCAR-4, in the experiment on UACC-257 and in the experiment with HOP-62 was > 100 µM (inactive) throughout. In addition, the GI50 is > 100 µM (inactive) with HL-60, more than 100 µM with HCT-15, > 100 µM (inactive) with EKVX and > 100 µM (inactive) in the experiment with NCI-H23.
As for `CCCCCCCC(=O)OCC1OC(n2cc(F)c(=O)[nH]c2=O)C(N)C(O)C1O` (stereo not drawn), the GI50 with HCT-116, in the experiment on SN12C, with RXF 393, with ACHN, in the experiment with NCI-H460 and with SW-620 was > 100 µM (inactive) each time. Moreover, the GI50 in the experiment with NCI-H522, with K562, in the experiment on OVCAR-4, in the experiment on UACC-257, in the experiment on HOP-62 and with HL-60 was > 100 µM (inactive) each time. In addition, the GI50 was more than 100 µM in the experiment with HCT-15, > 100 µM (inactive) in the experiment on EKVX and > 100 µM (inactive) in the experiment on NCI-H23.
With `Cc1ccc(S(=O)(=O)CNC(=S)CCCC(=S)NCS(=O)(=O)c2ccc(C)cc2)cc1`, the GI50 is 49 µM (inactive) in the experiment on HCT-116; > 100 µM (inactive) in the experiment on SN12C; 79.4 µM (inactive) with RXF 393; > 100 µM (inactive) in the experiment with NCI-H460; 18.6 µM (inactive) with LOX IMVI; > 100 µM (inactive) in the experiment on TK-10. Further, the GI50 was 53.5 µM (inactive) in the experiment with SW-620; 41.4 µM (inactive) in the experiment on NCI-H522; 53.6 µM (inactive) with K562; > 100 µM (inactive) in the experiment on OVCAR-4; > 100 µM (inactive) in the experiment with UACC-257; > 100 µM (inactive) in the experiment with HOP-62. Moreover, the GI50 in the experiment on HL-60 was 16.1 µM (inactive); in the experiment with HCT-15, 53.8 µM; in the experiment with EKVX, > 100 µM (inactive); in the experiment on NCI-H23 it was 35.4 µM (inactive).
